System: relapsed or refractory, rituximab-naive or -sensitive follicular B-cell NHL
Experiment: Time to next anti-lymphoma therapy, Vc-R vs rituximab study, by biomarker
Type: in vivo, human
Parameters: Median, Time to Next Anti-Lymphoma Therapy / Time to Next Anti-Lymphoma Therapy, Median: unit not given here
Text: Non-Hodgkin lymphoma (NHL) encompasses several unique malignant lymphoid disease entities that vary in clinical behavior, morphologic appearance, immunologic, and molecular phenotype. […] A randomized, open-label, active-controlled, multicenter, multinational, prospective study to compare the efficacy and safety of the combination of bortezomib and rituximab (Vc-R) to single-agent rituximab in subjects who have relapsed or refractory, rituximab-naive or -sensitive follicular B-cell NHL was performed.
Subjects were centrally randomized to Treatment Groups A (Vc-R) or B (rituximab) in a 1:1 ratio taking into account the following stratification factors: • Follicular Lymphoma International Prognostic Index (FLIPI) score (low [0 or 1 factor], intermediate [2 factors], high [≧3 factors]); • Prior rituximab therapy (yes, no); • Time since last dose of anti-lymphoma therapy (≦1 year, >1 year); • Region (United States/Canada, European Union, Rest of World).
The following clinical endpoints were included in the analysis within each treatment group and an overall comparison was made with the biomarker-related endpoints: Progression-free survival, defined as the interval between the date of randomization and the date of progressive disease (PD) or death, whichever is first reported in the ITT population; overall survival; overall response rate (complete response [CR]+CR unconfirmed [CRu]+partial response [PR]); overall CR rate (CR+CRu); duration of response; time to next anti-lymphoma therapy; and treatment free interval.

[1] = PSMB1/A171S: G/G, >1 year since last anti-lymphoma treatment
[2] = PSMB1/A171S: G/G, Ann Arbor Stage IV
[3] = PSMB1/A171S: G/G, European Union
[4] = PSMB1/A171S: G/G, High Tumor Burden
[5] = PSMB1/A171S: G/G, ≦65 years old
[6] = PSMB1/I208N: T/T, >1 year since last anti-lymphoma treatment
[7] = PSMB1/I208N: T/T, Ann Arbor Stage IV
[8] = PSMB1/I208N: T/T, European Union
[9] = PSMB1/I208N: T/T, High Tumor Burden
[10] = PSMB1/I208N: T/T, ≦65 years old
[11] = PSMB1/P11A: C/G, European Union
[12] = PSMB1/P11A: C/G, High Tumor Burden
[13] = PSMB1/P11A: G/G, >1 year since last anti-lymphoma treatment
[14] = PSMB1/P193L: C/C, >1 year since last anti-lymphoma treatment
[15] = PSMB1/P193L: C/C, Ann Arbor Stage IV
[16] = PSMB1/P193L: C/C, European Union
[17] = PSMB1/P193L: C/C, High Tumor Burden
[18] = PSMB1/P193L: C/C, ≦65 years old
[19] = PSMB2/E49X: G/G, >1 year since last anti-lymphoma treatment
[20] = PSMB2/E49X: G/G, Ann Arbor Stage IV
[21] = PSMB2/E49X: G/G, European Union
[22] = PSMB2/E49X: G/G, High Tumor Burden
[23] = PSMB2/G187V: G/G, >1 year since last anti-lymphoma treatment
[24] = PSMB2/G187V: G/G, Ann Arbor Stage IV
[25] = PSMB2/G187V: G/G, European Union
[26] = PSMB2/G187V: G/G, High Tumor Burden
[27] = PSMB2/G187V: G/G, ≦65 years old
[28] = PSMB2/L159F: C/C, >1 year since last anti-lymphoma treatment
[29] = PSMB2/L159F: C/C, Ann Arbor Stage IV
[30] = PSMB2/L159F: C/C, European Union
[31] = PSMB2/L159F: C/C, High Tumor Burden
[32] = PSMB2/L159F: C/C, ≦65 years old
[33] = PSMB5/L206M: C/C, >1 year since last anti-lymphoma treatment
[34] = PSMB5/L206M: C/C, Ann Arbor Stage IV

Substance: rituximab
- Median, Time to Next Anti-Lymphoma Therapy (P65 INTENSITY CYTOPLASMIC SIGNAL: ≧2+, ≦65 years old, IRC Review): 484
- Time to Next Anti-Lymphoma Therapy, Evt/N [1]: 98/165
- Time to Next Anti-Lymphoma Therapy, Median [1]: 688
- Time to Next Anti-Lymphoma Therapy, Evt/N [2]: 86/127
- Time to Next Anti-Lymphoma Therapy, Median [2]: 457
- Time to Next Anti-Lymphoma Therapy, Evt/N [3]: 75/119
- Time to Next Anti-Lymphoma Therapy, Median [3]: 675
- Time to Next Anti-Lymphoma Therapy, Evt/N [4]: 108/147
- Time to Next Anti-Lymphoma Therapy, Median [4]: 396
- Time to Next Anti-Lymphoma Therapy, Evt/N [5]: 130/198
- Time to Next Anti-Lymphoma Therapy, Median [5]: 489
- Time to Next Anti-Lymphoma Therapy, Evt/N [6]: 98/165
- Time to Next Anti-Lymphoma Therapy, Median [6]: 688
- Time to Next Anti-Lymphoma Therapy, Evt/N [7]: 86/127
- Time to Next Anti-Lymphoma Therapy, Median [7]: 457
- Time to Next Anti-Lymphoma Therapy, Evt/N [8]: 75/119
- Time to Next Anti-Lymphoma Therapy, Median [8]: 675
- Time to Next Anti-Lymphoma Therapy, Evt/N [9]: 108/147
- Time to Next Anti-Lymphoma Therapy, Median [9]: 396
- Time to Next Anti-Lymphoma Therapy, Evt/N (PSMB1/I208N: T/T, No Subgroup): 173/276
- Time to Next Anti-Lymphoma Therapy, Median (PSMB1/I208N: T/T, No Subgroup): 546
- Time to Next Anti-Lymphoma Therapy, Evt/N [10]: 130/198
- Time to Next Anti-Lymphoma Therapy, Median [10]: 489
- Time to Next Anti-Lymphoma Therapy, Evt/N [11]: 34/49
- Time to Next Anti-Lymphoma Therapy, Median [11]: 462
- Time to Next Anti-Lymphoma Therapy, Evt/N (PSMB1/P11A: C/G, Female): 42/75
- Time to Next Anti-Lymphoma Therapy, Median (PSMB1/P11A: C/G, Female): 546
- Time to Next Anti-Lymphoma Therapy, Evt/N [12]: 49/72
- Time to Next Anti-Lymphoma Therapy, Median [12]: 358
- Time to Next Anti-Lymphoma Therapy, Evt/N (PSMB1/P11A: C/G, No Subgroup): 78/127
- Time to Next Anti-Lymphoma Therapy, Median (PSMB1/P11A: C/G, No Subgroup): 550
- Time to Next Anti-Lymphoma Therapy, Evt/N (PSMB1/P11A: C/G, Other): 2/3
- Time to Next Anti-Lymphoma Therapy, Median (PSMB1/P11A: C/G, Other): 164
- Time to Next Anti-Lymphoma Therapy, Evt/N (PSMB1/P11A: C/G, White): 67/111
- Time to Next Anti-Lymphoma Therapy, Median (PSMB1/P11A: C/G, White): 581
- Time to Next Anti-Lymphoma Therapy, Evt/N (PSMB1/P11A: C/G, ≦65 years old): 63/96
- Time to Next Anti-Lymphoma Therapy, Median (PSMB1/P11A: C/G, ≦65 years old): 546
- Time to Next Anti-Lymphoma Therapy, Evt/N [13]: 17/20
- Time to Next Anti-Lymphoma Therapy, Median [13]: 429
- Time to Next Anti-Lymphoma Therapy, Evt/N (PSMB1/P11A: G/G, Male): 17/19
- Time to Next Anti-Lymphoma Therapy, Median (PSMB1/P11A: G/G, Male): 421
- Time to Next Anti-Lymphoma Therapy, Evt/N (PSMB1/P11A: G/G, No Subgroup): 30/37
- Time to Next Anti-Lymphoma Therapy, Median (PSMB1/P11A: G/G, No Subgroup): 436
- Time to Next Anti-Lymphoma Therapy, Evt/N (PSMB1/P11A: G/G, White): 27/32
- Time to Next Anti-Lymphoma Therapy, Median (PSMB1/P11A: G/G, White): 421
- Time to Next Anti-Lymphoma Therapy, Evt/N (PSMB1/P11A: G/G, ≦65 years old): 21/25
- Time to Next Anti-Lymphoma Therapy, Median (PSMB1/P11A: G/G, ≦65 years old): 409
- Time to Next Anti-Lymphoma Therapy, Evt/N [14]: 98/165
- Time to Next Anti-Lymphoma Therapy, Median [14]: 688
- Time to Next Anti-Lymphoma Therapy, Evt/N [15]: 86/127
- Time to Next Anti-Lymphoma Therapy, Median [15]: 457
- Time to Next Anti-Lymphoma Therapy, Evt/N [16]: 75/119
- Time to Next Anti-Lymphoma Therapy, Median [16]: 675
- Time to Next Anti-Lymphoma Therapy, Evt/N [17]: 108/147
- Time to Next Anti-Lymphoma Therapy, Median [17]: 396
- Time to Next Anti-Lymphoma Therapy, Evt/N (PSMB1/P193L: C/C, No Subgroup): 173/276
- Time to Next Anti-Lymphoma Therapy, Median (PSMB1/P193L: C/C, No Subgroup): 546
- Time to Next Anti-Lymphoma Therapy, Evt/N [18]: 130/198
- Time to Next Anti-Lymphoma Therapy, Median [18]: 489
- Time to Next Anti-Lymphoma Therapy, Evt/N [19]: 98/165
- Time to Next Anti-Lymphoma Therapy, Median [19]: 688
- Time to Next Anti-Lymphoma Therapy, Evt/N [20]: 86/127
- Time to Next Anti-Lymphoma Therapy, Median [20]: 457
- Time to Next Anti-Lymphoma Therapy, Evt/N [21]: 75/119
- Time to Next Anti-Lymphoma Therapy, Median [21]: 675
- Time to Next Anti-Lymphoma Therapy, Evt/N [22]: 108/147
- Time to Next Anti-Lymphoma Therapy, Median [22]: 396
- Time to Next Anti-Lymphoma Therapy, Evt/N (PSMB2/E49X: G/G, No Subgroup): 173/276
- Time to Next Anti-Lymphoma Therapy, Median (PSMB2/E49X: G/G, No Subgroup): 546
- Time to Next Anti-Lymphoma Therapy, Evt/N (PSMB2/E49X: G/G, ≦65 years old): 130/198
- Time to Next Anti-Lymphoma Therapy, Median (PSMB2/E49X: G/G, ≦65 years old): 489
- Time to Next Anti-Lymphoma Therapy, Evt/N [23]: 98/165
- Time to Next Anti-Lymphoma Therapy, Median [23]: 688
- Time to Next Anti-Lymphoma Therapy, Evt/N [24]: 86/127
- Time to Next Anti-Lymphoma Therapy, Median [24]: 457
- Time to Next Anti-Lymphoma Therapy, Evt/N [25]: 75/119
- Time to Next Anti-Lymphoma Therapy, Median [25]: 675
- Time to Next Anti-Lymphoma Therapy, Evt/N [26]: 108/147
- Time to Next Anti-Lymphoma Therapy, Median [26]: 396
- Time to Next Anti-Lymphoma Therapy, Evt/N (PSMB2/G187V: G/G, No Subgroup): 173/276
- Time to Next Anti-Lymphoma Therapy, Median (PSMB2/G187V: G/G, No Subgroup): 546
- Time to Next Anti-Lymphoma Therapy, Evt/N [27]: 130/198
- Time to Next Anti-Lymphoma Therapy, Median [27]: 489
- Time to Next Anti-Lymphoma Therapy, Evt/N [28]: 98/165
- Time to Next Anti-Lymphoma Therapy, Median [28]: 688
- Time to Next Anti-Lymphoma Therapy, Evt/N [29]: 86/127
- Time to Next Anti-Lymphoma Therapy, Median [29]: 457
- Time to Next Anti-Lymphoma Therapy, Evt/N [30]: 75/119
- Time to Next Anti-Lymphoma Therapy, Median [30]: 675
- Time to Next Anti-Lymphoma Therapy, Evt/N [31]: 108/147
- Time to Next Anti-Lymphoma Therapy, Median [31]: 396
- Time to Next Anti-Lymphoma Therapy, Evt/N (PSMB2/L159F: C/C, No Subgroup): 173/276
- Time to Next Anti-Lymphoma Therapy, Median (PSMB2/L159F: C/C, No Subgroup): 546
- Time to Next Anti-Lymphoma Therapy, Evt/N [32]: 130/198
- Time to Next Anti-Lymphoma Therapy, Median [32]: 489
- Time to Next Anti-Lymphoma Therapy, Evt/N [33]: 98/165
- Time to Next Anti-Lymphoma Therapy, Median [33]: 688
- Time to Next Anti-Lymphoma Therapy, Evt/N [34]: 86/127
- Time to Next Anti-Lymphoma Therapy, Median [34]: 457
- Time to Next Anti-Lymphoma Therapy, Evt/N (PSMB5/L206M: C/C, European Union): 75/119

From US9322066B2, “Predictors for cancer treatment” (priority 2011, dated 2016)
